Measurements: patent US20220281848A1, “PYRAZOLE-SUBSTITUTED PYRROLIDINONES AS HERBICIDES” (FMC Corporation, priority 2019, published 2022)

Tested on: plants
Experiment: Test D pre-emergence, other plants of Tables D1 and D3
Type: in vivo
Settings: for damage to plant (100=total damage to plant; 0=no damage to plant), ABUTH / damage to plant (100=total damage to plant; 0=no damage to plant), BIDPI / damage to plant (100=total damage to plant; 0=no damage to plant), BRAPL / damage to plant (100=total damage to plant; 0=no damage to plant), CYPES / damage to plant (100=total damage to plant; 0=no damage to plant), DIGSA / damage to plant (100=total damage to plant; 0=no damage to plant), ECHCG / damage to plant (100=total damage to plant; 0=no damage to plant), ELEIN / damage to plant (100=total damage to plant; 0=no damage to plant), EPHHL / damage to plant (100=total damage to plant; 0=no damage to plant), GLXMA / damage to plant (100=total damage to plant; 0=no damage to plant), IPOHE / damage to plant (100=total damage to plant; 0=no damage to plant), ORYSA / damage to plant (100=total damage to plant; 0=no damage to plant), PANMI / damage to plant (100=total damage to plant; 0=no damage to plant), SETFA / damage to plant (100=total damage to plant; 0=no damage to plant), SIDSP / damage to plant (100=total damage to plant; 0=no damage to plant), SORVU: preemergent, 20 DAA
Outline: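 Damage was rated visually from 0 (none) to 100 (total), at 20 DAA for pre-emergence and 15 d for post-emergence. Plants grew from safener-treated seed in a glasshouse at 24/18° C. or 20/16° C. day/night, 65% humidity, watered twice daily.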

[1] = pre-emergence, rate 15, 20 DAA, 100=total damage, 0=no damage

CCn1nc([C@H]2CN(C)C(=O)[C@@H]2C(=O)Nc2cccc(F)c2F)c2ccc(F)cc21 [Compound 4]
70: damage to plant (100=total damage to plant; 0=no damage to plant), SETFA (rate 30) | damage to plant (100=total damage to plant; 0=no damage to plant), SETFA (rate 60)
20: damage to plant (100=total damage to plant; 0=no damage to plant), PANMI (rate 250)
50: damage to plant (100=total damage to plant; 0=no damage to plant), SORVU (rate 500)
0: damage to plant (100=total damage to plant; 0=no damage to plant), ABUTH (rate 15) | damage to plant (100=total damage to plant; 0=no damage to plant), ABUTH (rate 30) | damage to plant (100=total damage to plant; 0=no damage to plant), ABUTH (rate 60) | damage to plant (100=total damage to plant; 0=no damage to plant), ABUTH (rate 130) | damage to plant (100=total damage to plant; 0=no damage to plant), ABUTH (rate 250) | damage to plant (100=total damage to plant; 0=no damage to plant), ABUTH (rate 500) | damage to plant (100=total damage to plant; 0=no damage to plant), BIDPI (rate 15) | damage to plant (100=total damage to plant; 0=no damage to plant), BIDPI (rate 30) | damage to plant (100=total damage to plant; 0=no damage to plant), BIDPI (rate 60) | damage to plant (100=total damage to plant; 0=no damage to plant), BIDPI (rate 130) | damage to plant (100=total damage to plant; 0=no damage to plant), BIDPI (rate 250) | damage to plant (100=total damage to plant; 0=no damage to plant), BIDPI (rate 500) | damage to plant (100=total damage to plant; 0=no damage to plant), CYPES (rate 15) | damage to plant (100=total damage to plant; 0=no damage to plant), CYPES (rate 30) | damage to plant (100=total damage to plant; 0=no damage to plant), CYPES (rate 60) | damage to plant (100=total damage to plant; 0=no damage to plant), CYPES (rate 130) | damage to plant (100=total damage to plant; 0=no damage to plant), CYPES (rate 250) | damage to plant (100=total damage to plant; 0=no damage to plant), CYPES (rate 500) | damage to plant (100=total damage to plant; 0=no damage to plant), DIGSA (rate 15) | damage to plant (100=total damage to plant; 0=no damage to plant), ECHCG (rate 15) | damage to plant (100=total damage to plant; 0=no damage to plant), ELEIN (rate 15) | damage to plant (100=total damage to plant; 0=no damage to plant), ELEIN (rate 30) | damage to plant (100=total damage to plant; 0=no damage to plant), EPHHL (rate 15) | damage to plant (100=total damage to plant; 0=no damage to plant), EPHHL (rate 30) | damage to plant (100=total damage to plant; 0=no damage to plant), EPHHL (rate 60) | damage to plant (100=total damage to plant; 0=no damage to plant), EPHHL (rate 130) | damage to plant (100=total damage to plant; 0=no damage to plant), EPHHL (rate 250) | damage to plant (100=total damage to plant; 0=no damage to plant), GLXMA (rate 15) | damage to plant (100=total damage to plant; 0=no damage to plant), GLXMA (rate 30) | damage to plant (100=total damage to plant; 0=no damage to plant), GLXMA (rate 60) | damage to plant (100=total damage to plant; 0=no damage to plant), GLXMA (rate 130) | damage to plant (100=total damage to plant; 0=no damage to plant), GLXMA (rate 250) | damage to plant (100=total damage to plant; 0=no damage to plant), GLXMA (rate 500) | damage to plant (100=total damage to plant; 0=no damage to plant), IPOHE (rate 15) | damage to plant (100=total damage to plant; 0=no damage to plant), IPOHE (rate 30) | damage to plant (100=total damage to plant; 0=no damage to plant), IPOHE (rate 60) | damage to plant (100=total damage to plant; 0=no damage to plant), IPOHE (rate 130) | damage to plant (100=total damage to plant; 0=no damage to plant), IPOHE (rate 250) | damage to plant (100=total damage to plant; 0=no damage to plant), ORYSA (rate 15) | damage to plant (100=total damage to plant; 0=no damage to plant), ORYSA (rate 30) | damage to plant (100=total damage to plant; 0=no damage to plant), ORYSA (rate 60) | damage to plant (100=total damage to plant; 0=no damage to plant), ORYSA (rate 130) | damage to plant (100=total damage to plant; 0=no damage to plant), ORYSA (rate 250) | damage to plant (100=total damage to plant; 0=no damage to plant), ORYSA (rate 500) | damage to plant (100=total damage to plant; 0=no damage to plant), PANMI (rate 15) | damage to plant (100=total damage to plant; 0=no damage to plant), PANMI (rate 30) | damage to plant (100=total damage to plant; 0=no damage to plant), PANMI (rate 60) | damage to plant (100=total damage to plant; 0=no damage to plant), PANMI (rate 130) | damage to plant (100=total damage to plant; 0=no damage to plant), SIDSP (rate 15) | damage to plant (100=total damage to plant; 0=no damage to plant), SIDSP (rate 30) | damage to plant (100=total damage to plant; 0=no damage to plant), SIDSP (rate 60) | damage to plant (100=total damage to plant; 0=no damage to plant), SIDSP (rate 500) | damage to plant (100=total damage to plant; 0=no damage to plant), SORVU (rate 15) | damage to plant (100=total damage to plant; 0=no damage to plant), SORVU (rate 30) | damage to plant, ALOMY [1] | damage to plant, AVEFA [1]
40: damage to plant (100=total damage to plant; 0=no damage to plant), BRAPL (rate 15) | damage to plant (100=total damage to plant; 0=no damage to plant), BRAPL (rate 30) | damage to plant (100=total damage to plant; 0=no damage to plant), ECHCG (rate 30) | damage to plant (100=total damage to plant; 0=no damage to plant), PANMI (rate 500) | damage to plant (100=total damage to plant; 0=no damage to plant), SORVU (rate 250)
90: damage to plant (100=total damage to plant; 0=no damage to plant), BRAPL (rate 250) | damage to plant (100=total damage to plant; 0=no damage to plant), BRAPL (rate 500) | damage to plant (100=total damage to plant; 0=no damage to plant), DIGSA (rate 130) | damage to plant (100=total damage to plant; 0=no damage to plant), DIGSA (rate 250) | damage to plant (100=total damage to plant; 0=no damage to plant), DIGSA (rate 500) | damage to plant (100=total damage to plant; 0=no damage to plant), ECHCG (rate 130) | damage to plant (100=total damage to plant; 0=no damage to plant), ECHCG (rate 250) | damage to plant (100=total damage to plant; 0=no damage to plant), ECHCG (rate 500) | damage to plant (100=total damage to plant; 0=no damage to plant), SETFA (rate 250) | damage to plant (100=total damage to plant; 0=no damage to plant), SETFA (rate 500)
10: damage to plant (100=total damage to plant; 0=no damage to plant), ELEIN (rate 250) | damage to plant (100=total damage to plant; 0=no damage to plant), ELEIN (rate 500) | damage to plant (100=total damage to plant; 0=no damage to plant), EPHHL (rate 500) | damage to plant (100=total damage to plant; 0=no damage to plant), IPOHE (rate 500) | damage to plant (100=total damage to plant; 0=no damage to plant), SETFA (rate 15) | damage to plant (100=total damage to plant; 0=no damage to plant), SORVU (rate 60) | damage to plant (100=total damage to plant; 0=no damage to plant), SORVU (rate 130)
60: damage to plant (100=total damage to plant; 0=no damage to plant), BRAPL (rate 60) | damage to plant (100=total damage to plant; 0=no damage to plant), DIGSA (rate 30)
80: damage to plant (100=total damage to plant; 0=no damage to plant), BRAPL (rate 130) | damage to plant (100=total damage to plant; 0=no damage to plant), DIGSA (rate 60) | damage to plant (100=total damage to plant; 0=no damage to plant), ECHCG (rate 60) | damage to plant (100=total damage to plant; 0=no damage to plant), SETFA (rate 130)
